System: Imiquimod-induced psoriasis
Assay: Imiquimod induced psoriasis in mice
Format: in vivo, mouse
Conditions: male C57BL/6 mice, vs vehicle control
Experimental: Imiquimod Induced Psoriasis:
Male C57BL/6 mice of 8-9 week age were used to evaluate the impact of TLR7/8/9 inhibitors on Imiquimod-induced psoriasis. Mice (7 to 10 per group) were randomized into different treatment groups based on body weight. Mice from the respective treatment groups were treated orally, once daily for 6 days with vehicle or test compound. Psoriasis was induced by application of imiquimod cream on the shaved back region of the mice everyday for 6 days. Disease severity was monitored daily by recording of skin thickness, erythema and scaling. A cumulative disease score was also calculated to reflect the impact on the overall severity of inflammation in this model. At the end of experiment, all mice were euthanized by CO2 asphyxiation and skin samples were subjected for histology. At the end of experiment, one way ANOVA with Dunnett's test was performed to calculate the significance of test compound treated group vs. vehicle control group. Overall percent reduction in imiquimod induced psoriasis was calculated for test compound treated group vs vehicle control group.

[1] = 0.1 mg/kg orally once daily for 6 days
[2] = 1 mg/kg orally once daily for 6 days
[3] = 10 mg/kg orally once daily for 6 days
[4] = 30 mg/kg orally once daily for 6 days

## COc1ccc(-c2[nH]c3ccc(C4CCN(C(=O)CN(C)C)CC4)cc3c2C(C)C)cc1OC [Example 209, 1-(4-(2-(3,4-dimethoxyphenyl)-3-isopropyl-1H-indol-5-yl)piperidin-1-yl)-2-(dimethylamino)ethan-1-one]
[1]
  % inhibition Cumulative score: 3%
  % inhibition Erythema: 3%
  % inhibition Scaling: 13%
  % inhibition Skin Thickness: 0%
[2]
  % inhibition Cumulative score: 27%
  % inhibition Erythema: 26%
  % inhibition Scaling: 38%
  % inhibition Skin Thickness: 18%
[3]
  % inhibition Cumulative score: 40%
  % inhibition Erythema: 41%
  % inhibition Scaling: 50%
  % inhibition Skin Thickness: 29%
[4]
  % inhibition Cumulative score: 49%
  % inhibition Erythema: 53%
  % inhibition Scaling: 63%
  % inhibition Skin Thickness: 32%
